For experiment [1], the system named is SW480. As to conditions: IC50 value, 48 h. As to the method: Acquisition was performed using CytoFLEX Cytometer (Beckman Coulter, Brea, CA, USA).
The FIG. 4 illustrates the apoptotic cell death analysis.

The subject of experiment [2] is A2780. As to conditions: read-out: IC50 A2780; ovarian cancer cell line; cited from earlier work.
The test system of experiment [3] is SW480 cell line. The conditions noted are these: IC50 value, 48 h. As to the method: SW480 cell line was seeded in 12-well plates with one coverslip per well. […] After 48 hours of incubation, the cells were fixed and stained as previously described (Pilon et al., 2020). Representative images were obtained in a fluorescence microscope (Olympus motorized BX63F Upright Microscope) (Olympus@, Tokyo, Japan) at a magnification of 600×.
Representative images (×600) of DAPI (4′,6-diamidino-2-phenylindole), Phalloidin-AlexaFluor 568 and merged were obtained in a fluorescence microscope. The results were obtained from at least three independent experiments.

Experiment [4] deals with breast cancer cell lines. As to conditions: cited from earlier work.
Experiment [5] has as its system proteins involved in MAPK and PI3K signaling pathways, in SW480 cells. As to conditions: SW480, 48 h, IC50 of PMC79. As to the method:
Samples were processed for LC-MS/MS analysis (Chiva et al. 2018; Olivella et al. 2021). Protein identification and validation, and gene ontology, localization and network analysis were performed as previously described (Perkins et al., 1999; Beer et al., 2017; Perez-Riverol et al., 2022).
Values represent mean of at least three independent experiments.

Experiment [6] has as its system SW480 cells. The conditions noted are these: IC50 and 2×IC50, 48 h and 72 h.
Description: SW480 cells were incubated with the dye and seeded according to the procedure recommended by CFSE package insert (BD Horizon™). […] After 48 h and 72 h, both floating and attached cells were collected, washed with PBS, centrifuged at 500 rpm for 10 min and the pellet resuspended in PBS before cytometer acquisition.
The effects on proliferation were also studied using carboxyfluorescein succinimidyl ester assay (CFSE). […] Thus, when cell proliferation is inhibited, we observe an increase of the intracellular fluorescence.
The FIG. 3 illustrates the quantification of CFSE median fluorescence intensity normalized to T0 after 48 and 72 h of incubation with IC50 and 2×IC50, in SW480 cell line. The values represent mean±S.D. of at least three independent experiments. Statistical analysis was performed by two-way ANOVA with Dunnett's multiple comparisons test. **P≤0.01; ***P≤0.001; ****P≤0.0001 compared with negative control.
For experiment [7], the system named is SW480 cell line. The conditions noted are these: IC50 of PMC79, 48 h. The procedure:
After 48 h, cells were processed according with (Teixeira et al., 2018). Slides were maintained at −20° C. until visualization in a fluorescence microscope (Leica DM 5000B, Leica Microsystems, Wetzlar, Germany).
DAPI ([…]), FITC (fluorescein isothiocyanate) and merged were obtained by fluorescence microscopy.

In experiment [8] the test system is breast cancer cell lines. As to conditions: cited from earlier work. This is another data set of the same source.
Experiment [9] has as its system SW480 cell line. Briefly: Colony formation assay. The conditions noted are these: 48 h with ¼ IC50 and ½ IC50, SW480.
Description: SW480 cell line was seeded, at a concentration of 500 cells/ml, in 6-well plates. […] The negative control cells were treated with DMSO 0.1%. […] Medium was renewed every 3 days. Nine days after removing the treatments, cells were stained as previously described (Côrte-Real, Karas, Brás, et al., 2019).
The FIG. 1 illustrates the analysis of the colony formation ability, after 48 h of incubation with ¼ IC50 and ½ IC50, in SW480 cell line. […] The values represent mean±S.D. of at least three independent experiments. Statistical analysis was performed by one-way ANOVA with Dunnett's multiple comparisons test. ****P≤ 0.0001 compared with negative control.
For experiment [10], the system named is KRAS, pAKT, total-AKT, pERK and total-ERK proteins, in SW480 cells. Briefly: Western blot analysis, SW480 cells harboring KRAS mutation. It counts as cell-based. The conditions noted are these: 48 h at the IC50 concentration of each compound, KRAS mutated. A general note: In western blotting, separated proteins are transferred to a membrane and probed.
Description: SW480 cells were exposed for 48 h, at the IC50 concentration of each compound before protein extraction and Western blot analysis.
Experiment [11] concerns SW480 CRC cell line. The conditions noted are these: read-out: IC50 in SW480 CRC cell line; Sulforhodamine B, 48 h. As to the method:
(§1) The noncancerous NCM460 cell line derived from normal colon epithelial mucosa, was obtained from INCELL's (Moyer et al., 1996), and the colorectal cancer derived cell lines, SW480, LS174T and RKO, were obtained from American Type Culture Collection (ATCC). All cell lines were maintained at 37° C. under a humidified atmosphere containing 5% CO2. NCM460 and SW480 cells were grown in RPMI medium and LS174T and RKO cells in DMEM, all supplemented with 10% FBS and 1% penicillin/streptomycin. SW480 cell were seeded normally at a concentration of 1×10^5 cells/ml except for some specific assays.
(§2) After 48 h of treatment, Sulforhodamine B was performed as previously described (Côrte-Real et al., 2019). Results were expressed relatively to the negative control (1), which was considered as 100% of cell growth.
(§3) Values represent mean+SD of at least three independent experiments.

In experiment [12] the test system is noncancerous NCM460 cell line derived from normal colon epithelial mucosa. The conditions noted are these: read-out: IC50 in noncancerous cell line NCM460; Sulforhodamine B, 48 h. The procedure: as §1, §2, §3
Experiment [13] relates to KRAS, pAKT, total-AKT, pERK and total-ERK proteins in RKO cells. Briefly: Western blot analysis, RKO cell line harboring wild-type KRAS. It counts as cell-based. The conditions noted are these: 48 h with IC50 values.
In experiment [14] the test system is KRAS, pAKT, total-AKT, pERK and total-ERK proteins, in LS174T cells. The conditions noted are these: 48 h of incubation, KRAS mutation. The procedure: Preparation of total protein extracts of colorectal cancer cell lines (RKO, LS174T and SW480), SDS-PAGE and Western blots were performed as previously described (Alves et al., 2015).
The Antibodies used were anti-KRAS and β-actin (Sigma); anti-phospho p44/42 MAPK (Thr202/Tyr204) (pERK), anti-p44/42 total (ERK), anti-phospho Akt (Ser473) (pAKT) and anti-Akt total (Cell Signaling) (AKT); GAPDH (Gene Tex). Proteomic study
GAPDH immunoblot was used as a loading control. The results were obtained from at least three independent experiments.

For experiment [15], the system named is MDA-MB-231. The conditions noted are these: read-out: IC50 MDA-MB-231 (PMC79); breast cancer cell line; cited from earlier work.
Experiment [16] deals with SW480 cell line. Briefly: Wound healing assay. The conditions noted are these: IC50 and 2×IC50, 12 h.
Description: SW480 cell line was seeded at a concentration of 7×10^5 cells/ml, in 6-well plates. […] The negative control cells were treated with DMSO 0.1%. Each condition was photographed at 0 h, 4 h, 8 h and 12 h. To analyze the data and measure the wound size at each time-point ImageJ 1.53a software was used.
Values represent mean±S.D. of at least three independent experiments. Statistical analysis was performed by one-way ANOVA with Turkey's multiple comparisons test. *P≤0.05; ***P≤0.001 compared with negative control.
The subject of experiment [17] is SW480 cell line. As to the method: SW480 cell line was seeded in 6-well plates. […] 24 h and 48 h later, cells were collected and processed according to the method described in (Teixeira et al., 2018). Cell-cycle phase data analysis and quantification was performed using FlowJo 10.7.2 software.
The subject of experiment [18] is breast cancer cell lines. The conditions noted are these: cited from earlier work. This is another data set of the same source.
For experiment [19], the system named is MCF7. As to conditions: breast cancer cell line; cited from earlier work.

The values that follow come from patent publication US20250186457A1, “USE OF AN ORGANOMETALLIC RUTHENIUM COMPOUND FOR THE PREVENTION AND/OR TREATMENT OF DISEASES AND/OR CONDITIONS RELATED TO CANCER IN AN INDIVIDUAL” (FACULDADE DE CIÊNCIAS DA UNIVERSIDADE DE LISBOA, priority 2022, published 2025).

For orientation: IC50 means the point on the concentration scale where inhibition reaches its midpoint. Regarding `O=S(=O)([O-])C(F)(F)F.OCc1ccnc(-c2cc(CO)ccn2)c1.[Ru+2].c1cc[cH-]c1.c1ccc(P(c2ccccc2)c2ccccc2)cc1` [PMC79, ({2,2′-bipyridine}-4,4′-diyldimethanol-k^2N, N′)(η^5-cyclopentadienyl) (6riphenylphosphine) ruthenium (II) triflate], in [1], the “necrotic cells (AV−/PI+)” value worked out at 10% and the “percentage of apoptotic cells (AV+/PI−; AV+/PI+)” value stood at 74%. The half-maximal inhibitory concentration (IC50) in [2] is 3.9 µM. Also, the “F-actin organization and morphology” value in experiment [3] is “affect cell-cell adhesion and intercellular contacts establishment”. In experiment [4], the “apoptosis (Annexin V stained cells) in breast cancer cell lines” value is reported as “induced apoptosis”. Further, in experiment [5], the “Abundance Ratio (log2): (pmc79)/(Control), AKT1” value is on record as −0.4039; the “Abundance Ratio (log2): (pmc79)/(Control), AKT2” value is given as −0.2506; the “Abundance Ratio (log2): (pmc79)/(Control), EGFR” value is on record as −0.948; the “Abundance Ratio (log2): (pmc79)/(Control), ERK1” value is on record as −0.3601. Also, in experiment [5], the “Abundance Ratio (log2): (pmc79)/(Control), KRAS” value is on record as −0.4019; the “Abundance Ratio (log2): (pmc79)/(Control), MEK1” value was −0.5421; the “Abundance Ratio (log2): (pmc79)/(Control), MEK2” value is listed as −0.2365; the “Abundance Ratio (log2): (pmc79)/(Control), MTOR” value is given as −1.326. Besides, in experiment [5], the “Abundance Ratio (log2): (pmc79)/(Control), PIK3C3” value is −0.1795 and the “Abundance Ratio (log2): (pmc79)/(Control), PIK3R4” value is given as −0.5555. Moreover, the “abundance of all proteins involved in KRAS signaling pathways versus control” value in experiment [5] (EGFR, KRAS, MEK 1, MEK 2, ERK1, PIK3, AKT1, AKT2, MTOR) was “less abundant”. Also, the “proliferation (CFSE median fluorescence intensity)” value in experiment [6] is recorded as “decrease in proliferation under all conditions”. Also, the TUNEL positive cells result in [7] is “increase of the number of apoptotic cells (TUNEL positive)”. Besides, the “mitochondria morphology and actin cytoskeleton in breast cancer cell lines” value in experiment [8] was “induced alterations in mitochondria morphology”. Also, the “clonogenic ability (colony formation)” value in experiment [9] is “significantly decreased the clonogenic ability”. Further, the “expression of KRAS, pERK, total-ERK, pAKT and total-AKT in SW480” value in experiment [10] is “inhibit to a very high extent”. The IC50 in experiment [11] came out at 40 µM. Besides, the IC50 in [12] is 44 µM. Besides, the “expression of KRAS, pERK, total-ERK, pAKT and total-AKT in RKO” value in experiment [13] is “no effect”. In experiment [14], the “expression of KRAS, pERK, total-ERK, pAKT and total-AKT in LS174T” value was “able to inhibit the expression”. Besides, the IC50 in [15] is 2.1 µM. The “percentage of wound closure” value in experiment [16] is “decreased the percentage of wound closure in a dose-dependent manner”. The “cell cycle alteration at 24 h” value in [17] (IC50 of PMC79, 24 h) was “cell cycle arrest at G0/G1 phase”. Also, the “cell cycle alteration at 48 h” value in experiment [17] (IC50 of PMC79, 48 h) is “increase of sub-G1 population”. For the same compound, the “proliferation / colony formation ability in breast cancer cell lines” value in experiment [18] is “inhibited proliferation by decreasing colony formation ability”. Also, the half-maximal inhibitory concentration (IC50) in experiment [19] was 5.9 µM.

Consider `N.N.[Cl][Pt][Cl]` [cisplatin, reference compound], for which the “expression of KRAS, pERK, total-ERK, pAKT and total-AKT in SW480” value in experiment [10] was “not observed”. Also, in [13], the “expression of KRAS, pERK, total-ERK, pAKT and total-AKT in RKO” value is “The same was also observed”.
